Laboratory results: patent US12281149B2, “Modulators of G-protein coupled receptors” (priority 2021, dated 2025)
Where two headings read alike, the source gives them in different places. *1 amine or outer side, *2 acyl side, *3 side chain or, on linkers, in order; H or OH if unused. Where a SMILES comes first, the peptide text is derived from it. Side-chain parts run from the residue outwards. [ ]: non-standard residue; d: D form. The star is where a group is joined. Isobutyryl(2-(3-CN-5-F-Ph)) = CC(C)(C(=O)*)c1cc(F)cc(C#N)c1; C20 diacid = O=C(O)CCCCCCCCCCCCCCCCCCC(=O)*; γGlu = O=C(O)[C@H](CCC(=O)[*:2])N[*:1]; X81 = CCC(CC)(C(=O)*)c1cc(F)cc(C#N)c1; X68 = CC(C)[C@@H](CN[*:1])C(=O)[*:2]; X27 = O=C1CC(C(=O)*)(c2ccccc2)CN1; NH(4-Cl-phenyl) = Clc1ccc(N*)cc1; X42 = CCOc1cnn(C(C)(C)C(=O)*)c1; AEEA = NCCOCCOCC(=O)O; Aib = CC(C)(N)C(=O)O; CO = O=C([*:1])[*:2]; GABA = NCCCC(=O)O; βAla = NCCC(=O)O

Tests used:
Format in all cases: cell-based
GLP-1 receptor [1] = target: T1, GLP-1 receptor (Homo sapiens, UniProt P43220); experiment: HitHunter cAMP assay, GLP-1 receptor; conditions: for Emax: read-out: Emax GLP-1R
T1 sequence (P43220 24-463): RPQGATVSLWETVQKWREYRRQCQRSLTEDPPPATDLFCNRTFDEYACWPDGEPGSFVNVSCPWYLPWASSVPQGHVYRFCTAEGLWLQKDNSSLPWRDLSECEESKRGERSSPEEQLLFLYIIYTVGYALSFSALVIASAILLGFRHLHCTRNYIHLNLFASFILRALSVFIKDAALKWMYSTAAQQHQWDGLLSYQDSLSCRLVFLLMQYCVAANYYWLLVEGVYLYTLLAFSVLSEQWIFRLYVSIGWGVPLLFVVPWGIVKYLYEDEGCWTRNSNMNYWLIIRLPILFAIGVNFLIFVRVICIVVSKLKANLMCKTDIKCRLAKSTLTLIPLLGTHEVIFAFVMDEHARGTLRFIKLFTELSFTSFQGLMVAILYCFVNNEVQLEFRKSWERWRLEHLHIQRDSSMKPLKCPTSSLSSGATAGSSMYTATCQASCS

GIP receptor [2] = target: T2, GIP receptor (Homo sapiens, UniProt P48546); experiment: HitHunter cAMP assay, GIP receptor; conditions: for Emax: read-out: Emax GIP-1R
T2 sequence (P48546 22-466): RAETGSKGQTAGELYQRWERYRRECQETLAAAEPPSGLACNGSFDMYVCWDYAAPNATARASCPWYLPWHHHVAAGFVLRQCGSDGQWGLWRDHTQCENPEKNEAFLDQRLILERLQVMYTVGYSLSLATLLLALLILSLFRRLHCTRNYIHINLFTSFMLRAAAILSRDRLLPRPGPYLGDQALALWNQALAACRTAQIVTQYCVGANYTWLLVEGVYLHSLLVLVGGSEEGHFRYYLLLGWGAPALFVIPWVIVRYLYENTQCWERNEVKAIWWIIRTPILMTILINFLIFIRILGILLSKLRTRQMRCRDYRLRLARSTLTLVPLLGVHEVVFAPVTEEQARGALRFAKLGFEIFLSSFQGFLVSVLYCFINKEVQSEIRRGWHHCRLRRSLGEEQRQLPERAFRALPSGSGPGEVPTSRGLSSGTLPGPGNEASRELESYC

GIP receptor [3] = target: T2, GIP receptor; experiment: PathHunter β-arrestin assay, GIP receptor; design: host or cells: PathHunter CHO-K1 GIPR β-Arrestin Cell Line
GLP-1 receptor [4] = target: T1, GLP-1 receptor; experiment: PathHunter β-arrestin assay, GLP-1 receptor; design: host or cells: PathHunter CHO-K1 GLP1R β-Arrestin Cell Line
[5] = CHO cells stably expressing human GLP-1 receptor, cAMP accumulation, 30 min, read-out: EC50 GLP-1R
[6] = CHO cells, cAMP, normalized to maximum signal from GLP-1 (high) and DMSO (low)
[7] = CHO cells stably expressing GIP receptor, cAMP accumulation, 30 min, read-out: EC50 GIP-1R
[8] = CHO cells, cAMP, normalized to maximum signal from GIP (high) and DMSO (low)
[9] = β-arrestin-2 recruitment, PathHunter CHO-K1 GIPR β-Arrestin Cell Line, 90 min at 37° C., normalized to GIP, read-out: GIPR β Arrestin EC50
[10] = β-arrestin-2 recruitment, PathHunter CHO-K1 GLP1R β-Arrestin Cell Line, 90 min at 37° C., normalized to GLP-1, read-out: GLP-1R β Arrestin EC50

## CC[C@H](C)[C@H](NC(=O)[C@H](CC(C)C)NC(=O)[C@H](Cc1c[nH]c2ccccc12)NC(=O)[C@H](CCC(N)=O)NC(=O)[C@@H](NC(=O)[C@H](Cc1ccccc1)NC(=O)[C@H](C)NC(=O)[C@H](CCCCNC(=O)COCCOCCNC(=O)COCCOCCNC(=O)CC[C@H](NC(=O)CCCCCCCCCCCCCCCCCCC(=O)O)C(=O)O)NC(=O)[C@H](CCC(N)=O)NC(=O)[C@H](C)NC(=O)[C@@H](NC(=O)[C@H](CCCCN)NC(=O)[C@H](CC(=O)O)NC(=O)[C@H](CC(C)C)NC(=O)C(C)(C)NC(=O)[C@@H](NC(=O)[C@H](CO)NC(=O)[C@H](Cc1ccc(O)cc1)NC(=O)[C@H](CC(=O)O)NC(=O)[C@H](CO)NC(=O)[C@@H](NC(=O)[C@H](Cc1ccccc1)NC(=O)[C@@H](NC(=O)CNC(=O)[C@H](CCC(=O)O)NC(=O)CCNC(=O)C(CC)(CC)c1cc(F)cc(C#N)c1)[C@@H](C)O)[C@@H](C)O)[C@@H](C)CC)[C@@H](C)CC)C(C)C)C(=O)N[C@@H](C)C(=O)NCC(=O)NCC(=O)N1CCC[C@H]1C(=O)N[C@@H](CO)C(=O)N[C@@H](CO)C(=O)NCC(=O)N[C@@H](C)C(=O)N1CCC[C@H]1C(=O)N1CCC[C@H]1C(=O)N1CCC[C@H]1C(=O)N[C@@H](CO)C(N)=O [Compound 162] ({X81-βAla}-EGTFTSDYSI[Aib]LDKIAQK([AEEA-AEEA-γGlu-C20 diacid])AFVQWLIAGGPSSGAPPPS-NH2)
GLP-1 receptor [1]; [5]
  EC50: 1 to 10 nM
GLP-1 receptor [1]; [6]
  Emax: 127%
GIP receptor [2]; [7]
  EC50: 1 to 10 nM
GIP receptor [2]; [8]
  Emax: 113%
GIP receptor [3]; [9]
  EC50: < 1000 nM
GLP-1 receptor [4]; [10]
  EC50: > 1000 nM

## CC[C@H](C)[C@H](NC(=O)[C@H](CC(C)C)NC(=O)[C@H](Cc1c[nH]c2ccccc12)NC(=O)[C@H](CCC(N)=O)NC(=O)[C@@H](NC(=O)[C@H](Cc1ccccc1)NC(=O)[C@H](C)NC(=O)[C@H](CCCCNC(=O)COCCOCCNC(=O)COCCOCCNC(=O)CC[C@H](NC(=O)CCCCCCCCCCCCCCCCCCC(=O)O)C(=O)O)NC(=O)[C@H](CCC(N)=O)NC(=O)[C@H](C)NC(=O)[C@@H](NC(=O)[C@H](CCCCN)NC(=O)[C@H](CC(=O)O)NC(=O)[C@H](CC(C)C)NC(=O)C(C)(C)NC(=O)[C@@H](NC(=O)[C@H](CO)NC(=O)[C@H](Cc1ccc(O)cc1)NC(=O)[C@H](CC(=O)O)NC(=O)[C@H](CO)NC(=O)[C@@H](NC(=O)[C@H](Cc1ccccc1)NC(=O)[C@@H](NC(=O)CNC(=O)[C@H](CCC(=O)O)NC(=O)CCCNC(=O)CNC(=O)Nc1ccc(Cl)cc1)[C@@H](C)O)[C@@H](C)O)[C@@H](C)CC)[C@@H](C)CC)C(C)C)C(=O)N[C@@H](C)C(=O)NCC(=O)NCC(=O)N1CCC[C@H]1C(=O)N[C@@H](CO)C(=O)N[C@@H](CO)C(=O)NCC(=O)N[C@@H](C)C(=O)N1CCC[C@H]1C(=O)N1CCC[C@H]1C(=O)N1CCC[C@H]1C(=O)N[C@@H](CO)C(N)=O [Compound 270] ({NH(4-Cl-phenyl)-CO}-G[GABA]EGTFTSDYSI[Aib]LDKIAQK([AEEA-AEEA-γGlu-C20 diacid])AFVQWLIAGGPSSGAPPPS-NH2)
GLP-1 receptor [1]
  EC50: 10 to 100 nM
GLP-1 receptor [1]; CHO
  Emax: 91%
GIP receptor [2]
  EC50: 1 to 10 nM
GIP receptor [2]; CHO
  Emax: 104%
GIP receptor [3]
  EC50: < 1000 nM
GLP-1 receptor [4]
  EC50: > 1000 nM

## CCOc1cnn(C(C)(C)C(=O)NCCC(=O)N[C@@H](CCC(=O)O)C(=O)NCC(=O)N[C@H](C(=O)N[C@@H](Cc2ccccc2)C(=O)N[C@H](C(=O)N[C@@H](CO)C(=O)N[C@@H](CC(=O)O)C(=O)N[C@@H](Cc2ccc(O)cc2)C(=O)N[C@@H](CO)C(=O)N[C@H](C(=O)NC(C)(C)C(=O)N[C@@H](CC(C)C)C(=O)N[C@@H](CC(=O)O)C(=O)N[C@@H](CCCCN)C(=O)N[C@H](C(=O)N[C@@H](C)C(=O)N[C@@H](CCC(N)=O)C(=O)N[C@@H](CCCCNC(=O)COCCOCCNC(=O)COCCOCCNC(=O)CC[C@H](NC(=O)CCCCCCCCCCCCCCCCCCC(=O)O)C(=O)O)C(=O)N[C@@H](C)C(=O)N[C@@H](Cc2ccccc2)C(=O)N[C@H](C(=O)N[C@@H](CCC(N)=O)C(=O)N[C@@H](Cc2c[nH]c3ccccc23)C(=O)N[C@@H](CC(C)C)C(=O)N[C@H](C(=O)N[C@@H](C)C(=O)NCC(=O)NCC(=O)N2CCC[C@H]2C(=O)N[C@@H](CO)C(=O)N[C@@H](CO)C(=O)NCC(=O)N[C@@H](C)C(=O)N2CCC[C@H]2C(=O)N2CCC[C@H]2C(=O)N2CCC[C@H]2C(=O)N[C@@H](CO)C(N)=O)[C@@H](C)CC)C(C)C)[C@@H](C)CC)[C@@H](C)CC)[C@@H](C)O)[C@@H](C)O)c1 [Compound 152] ({X42-βAla}-EGTFTSDYSI[Aib]LDKIAQK([AEEA-AEEA-γGlu-C20 diacid])AFVQWLIAGGPSSGAPPPS-NH2)
GLP-1 receptor [1]; [5]
  EC50: 0.1 to 1 nM
GLP-1 receptor [1]; [6]
  Emax: 98%
GIP receptor [2]; [7]
  EC50: 10 to 100 nM
GIP receptor [2]; [8]
  Emax: 104%
GIP receptor [3]; [9]
  EC50: > 1000 nM
GLP-1 receptor [4]; [10]
  EC50: > 1000 nM

## CC[C@H](C)[C@H](NC(=O)[C@H](CC(C)C)NC(=O)[C@H](Cc1c[nH]c2ccccc12)NC(=O)[C@H](CCC(N)=O)NC(=O)[C@@H](NC(=O)[C@H](Cc1ccccc1)NC(=O)[C@H](C)NC(=O)[C@H](CCCCNC(=O)COCCOCCNC(=O)COCCOCCNC(=O)CC[C@H](NC(=O)CCCCCCCCCCCCCCCCCCC(=O)O)C(=O)O)NC(=O)[C@H](CCC(N)=O)NC(=O)[C@H](C)NC(=O)[C@@H](NC(=O)[C@H](CCCCN)NC(=O)[C@H](CC(=O)O)NC(=O)[C@H](CC(C)C)NC(=O)C(C)(C)NC(=O)[C@@H](NC(=O)[C@H](CO)NC(=O)[C@H](Cc1ccc(O)cc1)NC(=O)[C@H](CC(=O)O)NC(=O)[C@H](CO)NC(=O)[C@@H](NC(=O)[C@H](Cc1ccccc1)NC(=O)[C@@H](NC(=O)CNC(=O)[C@@H](CC(=O)O)NC(=O)CCCNC(=O)C1(c2ccccc2)CNC(=O)C1)[C@@H](C)O)[C@@H](C)O)[C@@H](C)CC)[C@@H](C)CC)C(C)C)C(=O)N[C@@H](C)C(=O)NCC(=O)NCC(=O)N1CCC[C@H]1C(=O)N[C@@H](CO)C(=O)N[C@@H](CO)C(=O)NCC(=O)N[C@@H](C)C(=O)N1CCC[C@H]1C(=O)N1CCC[C@H]1C(=O)N1CCC[C@H]1C(=O)N[C@@H](CO)C(N)=O (stereo partly drawn) [Compound 121] ({X27-GABA}-[dD]GTFTSDYSI[Aib]LDKIAQK([AEEA-AEEA-γGlu-C20 diacid])AFVQWLIAGGPSSGAPPPS-NH2)
GLP-1 receptor [1]; [5]
  EC50: 10 to 100 nM
GLP-1 receptor [1]; [6]
  Emax: 72%
GIP receptor [2]; [7]
  EC50: > 1000 nM
GIP receptor [2]; [8]
  Emax: 76%
GIP receptor [3]; [9]
  EC50: < 1000 nM
GLP-1 receptor [4]; [10]
  EC50: > 1000 nM

## CC[C@H](C)[C@H](NC(=O)[C@H](CC(C)C)NC(=O)[C@H](Cc1c[nH]c2ccccc12)NC(=O)[C@H](CCC(N)=O)NC(=O)[C@@H](NC(=O)[C@H](Cc1ccccc1)NC(=O)[C@H](C)NC(=O)[C@H](CCCCNC(=O)COCCOCCNC(=O)COCCOCCNC(=O)CC[C@H](NC(=O)CCCCCCCCCCCCCCCCCCC(=O)O)C(=O)O)NC(=O)[C@H](CCC(N)=O)NC(=O)[C@H](C)NC(=O)[C@@H](NC(=O)[C@H](CCCCN)NC(=O)[C@H](CC(=O)O)NC(=O)[C@H](CC(C)C)NC(=O)C(C)(C)NC(=O)[C@@H](NC(=O)[C@H](CO)NC(=O)[C@H](Cc1ccc(O)cc1)NC(=O)[C@H](CC(=O)O)NC(=O)[C@H](CO)NC(=O)[C@@H](NC(=O)[C@H](Cc1ccccc1)NC(=O)[C@@H](NC(=O)CNC(=O)[C@H](CCC(=O)O)NC(=O)[C@H](CNC(=O)C(C)(C)c1cc(F)cc(C#N)c1)C(C)C)[C@@H](C)O)[C@@H](C)O)[C@@H](C)CC)[C@@H](C)CC)C(C)C)C(=O)N[C@@H](C)C(=O)NCC(=O)NCC(=O)N1CCC[C@H]1C(=O)N[C@@H](CO)C(=O)N[C@@H](CO)C(=O)NCC(=O)N[C@@H](C)C(=O)N1CCC[C@H]1C(=O)N1CCC[C@H]1C(=O)N1CCC[C@H]1C(=O)N[C@@H](CO)C(N)=O [Compound 171] ({Isobutyryl(2-(3-CN-5-F-Ph))}-[X68]EGTFTSDYSI[Aib]LDKIAQK([AEEA-AEEA-γGlu-C20 diacid])AFVQWLIAGGPSSGAPPPS-NH2)
GLP-1 receptor [1]; [5]
  EC50: 10 to 100 nM
GLP-1 receptor [1]; [6]
  Emax: 109%
GIP receptor [2]; [7]
  EC50: 100 to 1000 nM
GIP receptor [2]; [8]
  Emax: 94%
GIP receptor [3]; [9]
  EC50: > 1000 nM
GLP-1 receptor [4]; [10]
  EC50: > 1000 nM
